The nature of series [1]: Solubility of compound in phosphate buffer at pH 2 at room temperature after 3 days.
Series [2] can be described thus: Protein binding in human plasma at 1 uM after 6 hrs by LC/MS/MS based equilibrium dialysis method. It is filed as ADME, cell-free. The note with it: read-out: PPB (converted). On the technique in general: In equilibrium dialysis free small molecules cross a membrane that holds back macromolecules.
A short description of series [3]: Solubility of the compound in phosphate buffer at pH 7 at room temperature after 3 days.
Series [4] concerns the target T1, P2X purinoceptor 7 (Mus musculus, UniProt Q9Z1M0).
T1 sequence (Q9Z1M0 whole entry): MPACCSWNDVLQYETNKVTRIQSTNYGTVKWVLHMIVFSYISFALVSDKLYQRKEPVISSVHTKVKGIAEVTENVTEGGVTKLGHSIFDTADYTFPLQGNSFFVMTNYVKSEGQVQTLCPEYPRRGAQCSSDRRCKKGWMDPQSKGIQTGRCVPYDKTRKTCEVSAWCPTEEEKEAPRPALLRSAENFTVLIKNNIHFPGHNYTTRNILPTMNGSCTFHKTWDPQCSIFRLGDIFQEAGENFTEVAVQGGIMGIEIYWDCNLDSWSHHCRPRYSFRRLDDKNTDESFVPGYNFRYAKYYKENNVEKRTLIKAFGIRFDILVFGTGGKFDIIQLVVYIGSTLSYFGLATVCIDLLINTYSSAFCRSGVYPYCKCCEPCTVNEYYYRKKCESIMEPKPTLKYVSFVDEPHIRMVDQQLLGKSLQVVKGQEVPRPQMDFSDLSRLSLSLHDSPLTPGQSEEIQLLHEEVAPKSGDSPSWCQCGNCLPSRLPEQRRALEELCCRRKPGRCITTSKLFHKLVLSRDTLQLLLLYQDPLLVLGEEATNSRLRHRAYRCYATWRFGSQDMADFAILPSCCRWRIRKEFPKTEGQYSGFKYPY
Description: Antagonist activity at recombinant mouse P2X7 receptor expressed in human 1321N1 cells assessed as inhibition of Bz-ATP-induced Ca2+ flux preincubated for 30 mins followed by agonist addition measured after 180 sec by calcium-4 dye based FLIPR assay. It is filed as cell-based. In general terms: Calcium assays in cells follow changes in intracellular calcium, usually with a dye or a luminescent sensor.

Series [5] in a line: Protein binding in rat plasma at 1 uM after 6 hrs by LC/MS/MS based equilibrium dialysis method. In kind it is ADME, cell-free. The note with it: read-out: PPB (converted).
Series [6] deals with T2, P2X purinoceptor 7 (Rattus norvegicus, UniProt Q64663).
T2 sequence (Q64663 whole entry): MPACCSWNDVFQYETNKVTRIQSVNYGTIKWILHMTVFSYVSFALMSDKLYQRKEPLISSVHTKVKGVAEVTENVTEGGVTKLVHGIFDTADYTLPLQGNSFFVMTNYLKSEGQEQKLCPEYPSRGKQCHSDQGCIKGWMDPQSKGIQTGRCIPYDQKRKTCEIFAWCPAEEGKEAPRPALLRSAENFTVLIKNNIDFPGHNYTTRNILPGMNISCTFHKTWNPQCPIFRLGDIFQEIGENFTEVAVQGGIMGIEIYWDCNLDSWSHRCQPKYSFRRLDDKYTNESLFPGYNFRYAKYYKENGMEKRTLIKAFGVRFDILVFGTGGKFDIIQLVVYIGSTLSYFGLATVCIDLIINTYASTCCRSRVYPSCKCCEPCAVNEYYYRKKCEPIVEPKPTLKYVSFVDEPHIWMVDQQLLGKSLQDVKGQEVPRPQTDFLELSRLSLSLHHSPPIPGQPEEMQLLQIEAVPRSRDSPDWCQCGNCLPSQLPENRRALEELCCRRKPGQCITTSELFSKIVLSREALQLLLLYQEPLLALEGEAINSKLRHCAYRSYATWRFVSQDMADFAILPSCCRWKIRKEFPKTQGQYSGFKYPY
Put plainly: Antagonist activity at recombinant rat P2X7 receptor expressed in human 1321N1 cells assessed as inhibition of Bz-ATP-induced Ca2+ flux preincubated for 30 mins followed by agonist addition measured after 180 sec by calcium-4 dye based FLIPR assay. It is filed as cell-based.

The target of series [7] is T3, P2X purinoceptor 7 (Homo sapiens, UniProt Q99572).
T3 sequence (Q99572 whole entry): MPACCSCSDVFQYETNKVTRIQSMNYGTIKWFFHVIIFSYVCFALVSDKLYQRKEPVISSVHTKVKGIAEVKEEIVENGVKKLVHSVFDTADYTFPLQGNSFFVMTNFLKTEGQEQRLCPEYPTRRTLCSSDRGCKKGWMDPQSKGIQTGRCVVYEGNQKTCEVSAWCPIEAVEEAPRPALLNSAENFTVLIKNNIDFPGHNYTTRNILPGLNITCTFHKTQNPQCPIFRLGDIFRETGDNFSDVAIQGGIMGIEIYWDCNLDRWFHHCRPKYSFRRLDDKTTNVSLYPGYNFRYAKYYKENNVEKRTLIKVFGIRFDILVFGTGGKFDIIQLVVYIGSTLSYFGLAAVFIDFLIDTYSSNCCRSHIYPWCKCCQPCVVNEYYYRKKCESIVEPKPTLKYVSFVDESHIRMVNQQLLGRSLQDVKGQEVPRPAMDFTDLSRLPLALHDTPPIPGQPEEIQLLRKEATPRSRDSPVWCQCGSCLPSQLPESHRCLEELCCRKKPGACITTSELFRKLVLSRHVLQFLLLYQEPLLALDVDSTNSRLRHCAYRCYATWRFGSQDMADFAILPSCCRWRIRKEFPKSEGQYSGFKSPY
Put plainly: Antagonist activity at recombinant human P2X7 receptor expressed in human 1321N1 cells assessed as inhibition of Bz-ATP-induced Ca2+ flux preincubated for 30 mins followed by agonist addition measured after 180 sec by calcium-4 dye based FLIPR assay. In kind it is cell-based.

Series [8] can be described thus: in vitro. The note with it: human, liver microsomes.
Description: Extraction ratio in human liver microsomes at 1 uM upto 60 mins in presence of NDPH by LC/MS/MS analysis
Series [9] in a line: in vitro. The note with it: rat, liver microsomes. (Liver microsomes are a subcellular fraction often used to study metabolism.)
Description: Extraction ratio in rat liver microsomes at 1 uM upto 60 mins in presence of NDPH by LC/MS/MS analysis
In series [10] the target is T4, CYP3A4 (Homo sapiens, UniProt P08684). Put plainly: Inhibition of CYP3A4 in human liver microsomes using midazolam as substrate assessed as reduction in 1-OH-midazolam formation at 0.01 uM by LC/MS/MS analysis. Conditions: probe midazolam.
T4 sequence (P08684 whole entry): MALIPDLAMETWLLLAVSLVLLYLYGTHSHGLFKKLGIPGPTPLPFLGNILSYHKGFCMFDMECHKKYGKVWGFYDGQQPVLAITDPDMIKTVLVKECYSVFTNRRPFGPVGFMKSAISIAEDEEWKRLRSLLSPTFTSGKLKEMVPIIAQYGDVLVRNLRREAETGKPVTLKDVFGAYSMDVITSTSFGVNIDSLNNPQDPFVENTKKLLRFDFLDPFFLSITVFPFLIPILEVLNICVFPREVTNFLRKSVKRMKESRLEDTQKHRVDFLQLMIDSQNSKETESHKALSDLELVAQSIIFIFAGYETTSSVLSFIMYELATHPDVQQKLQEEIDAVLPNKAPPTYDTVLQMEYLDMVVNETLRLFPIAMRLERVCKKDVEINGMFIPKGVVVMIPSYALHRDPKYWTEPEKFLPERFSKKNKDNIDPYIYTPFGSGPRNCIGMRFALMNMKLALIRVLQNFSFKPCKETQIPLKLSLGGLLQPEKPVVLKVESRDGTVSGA
In series [11] the target is T4, CYP3A4. Description: Inhibition of CYP3A4 in human liver microsomes using midazolam as substrate assessed as reduction in 4-OH-midazolam formation at 0.01 uM by LC/MS/MS analysis. Conditions: probe midazolam.
Series [12] has as its target T4, CYP3A4. Description: Inhibition of CYP3A4 in human liver microsomes using midazolam as substrate assessed as reduction in 4-OH-midazolam formation at 0.02 uM by LC/MS/MS analysis. The note with it: probe midazolam.
In series [13] the target is T4, CYP3A4. Description: Inhibition of CYP3A4 in human liver microsomes using midazolam as substrate assessed as reduction in 1-OH-midazolam formation at 0.02 uM by LC/MS/MS analysis. The note with it: probe midazolam.
Series [14] deals with Voltage-gated inwardly rectifying potassium channel KCNH2 (Homo sapiens, UniProt Q12809). Description: Displacement of [3H]astemizole from human ERG expressed in HEK293 cells by competitive binding assay. It is filed as cell-based.
Sequence of Voltage-gated inwardly rectifying potassium channel KCNH2 (Q12809 whole entry): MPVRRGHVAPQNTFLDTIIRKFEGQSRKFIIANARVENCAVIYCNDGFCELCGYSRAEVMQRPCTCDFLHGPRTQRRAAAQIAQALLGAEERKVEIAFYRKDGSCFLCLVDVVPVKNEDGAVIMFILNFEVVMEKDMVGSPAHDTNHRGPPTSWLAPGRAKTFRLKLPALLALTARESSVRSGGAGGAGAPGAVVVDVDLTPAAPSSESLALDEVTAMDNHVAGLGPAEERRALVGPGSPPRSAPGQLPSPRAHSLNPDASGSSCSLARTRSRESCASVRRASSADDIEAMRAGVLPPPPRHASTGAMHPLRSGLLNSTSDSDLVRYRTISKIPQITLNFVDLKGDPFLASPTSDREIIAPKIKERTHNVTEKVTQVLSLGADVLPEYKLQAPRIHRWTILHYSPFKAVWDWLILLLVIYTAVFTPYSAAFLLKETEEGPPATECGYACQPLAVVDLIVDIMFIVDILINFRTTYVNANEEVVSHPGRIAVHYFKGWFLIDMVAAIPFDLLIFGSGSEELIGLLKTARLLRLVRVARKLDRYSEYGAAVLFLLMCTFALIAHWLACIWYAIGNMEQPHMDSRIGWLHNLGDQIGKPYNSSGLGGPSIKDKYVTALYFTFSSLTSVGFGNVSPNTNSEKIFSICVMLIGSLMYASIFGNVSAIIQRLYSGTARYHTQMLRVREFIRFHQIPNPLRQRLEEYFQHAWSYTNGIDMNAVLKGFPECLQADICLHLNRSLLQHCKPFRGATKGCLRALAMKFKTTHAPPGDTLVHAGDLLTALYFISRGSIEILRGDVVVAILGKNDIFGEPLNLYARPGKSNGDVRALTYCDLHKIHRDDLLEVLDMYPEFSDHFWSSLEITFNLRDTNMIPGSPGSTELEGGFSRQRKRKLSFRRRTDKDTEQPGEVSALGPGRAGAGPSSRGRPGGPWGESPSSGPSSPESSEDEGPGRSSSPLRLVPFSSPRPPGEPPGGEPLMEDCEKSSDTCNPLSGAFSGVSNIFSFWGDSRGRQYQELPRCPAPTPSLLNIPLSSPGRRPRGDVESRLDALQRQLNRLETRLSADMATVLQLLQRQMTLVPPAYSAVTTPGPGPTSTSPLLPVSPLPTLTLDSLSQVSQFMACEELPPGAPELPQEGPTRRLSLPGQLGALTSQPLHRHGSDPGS
A further series deals with Cytochrome P450 2C19 (Homo sapiens, UniProt P33261). Put plainly: Inhibition of CYP2C19 in human liver microsomes using S-mephenytoin as substrate after 15 mins by LC/MS/MS analysis. In kind it is ADME.
Sequence of Cytochrome P450 2C19 (P33261 whole entry): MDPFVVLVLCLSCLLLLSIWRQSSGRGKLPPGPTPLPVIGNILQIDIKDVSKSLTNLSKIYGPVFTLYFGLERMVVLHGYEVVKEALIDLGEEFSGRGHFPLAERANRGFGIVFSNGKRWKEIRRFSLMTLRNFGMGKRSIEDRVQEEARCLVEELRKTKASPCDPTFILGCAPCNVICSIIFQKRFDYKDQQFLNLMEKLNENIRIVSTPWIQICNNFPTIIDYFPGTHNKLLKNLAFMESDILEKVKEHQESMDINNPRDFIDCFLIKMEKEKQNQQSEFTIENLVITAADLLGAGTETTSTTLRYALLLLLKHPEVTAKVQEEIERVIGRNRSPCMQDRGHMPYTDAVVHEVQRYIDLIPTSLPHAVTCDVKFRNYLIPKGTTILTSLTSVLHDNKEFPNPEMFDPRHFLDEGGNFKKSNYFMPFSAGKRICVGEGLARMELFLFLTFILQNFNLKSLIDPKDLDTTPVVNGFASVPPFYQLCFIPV
The target in the next series is Cytochrome P450 2D6 (Homo sapiens, UniProt P10635). Put plainly: Inhibition of CYP2D6 in human liver microsomes using dextromethorphan as substrate after 15 mins by LC/MS/MS analysis. It is filed as ADME.
Sequence of Cytochrome P450 2D6 (P10635 whole entry): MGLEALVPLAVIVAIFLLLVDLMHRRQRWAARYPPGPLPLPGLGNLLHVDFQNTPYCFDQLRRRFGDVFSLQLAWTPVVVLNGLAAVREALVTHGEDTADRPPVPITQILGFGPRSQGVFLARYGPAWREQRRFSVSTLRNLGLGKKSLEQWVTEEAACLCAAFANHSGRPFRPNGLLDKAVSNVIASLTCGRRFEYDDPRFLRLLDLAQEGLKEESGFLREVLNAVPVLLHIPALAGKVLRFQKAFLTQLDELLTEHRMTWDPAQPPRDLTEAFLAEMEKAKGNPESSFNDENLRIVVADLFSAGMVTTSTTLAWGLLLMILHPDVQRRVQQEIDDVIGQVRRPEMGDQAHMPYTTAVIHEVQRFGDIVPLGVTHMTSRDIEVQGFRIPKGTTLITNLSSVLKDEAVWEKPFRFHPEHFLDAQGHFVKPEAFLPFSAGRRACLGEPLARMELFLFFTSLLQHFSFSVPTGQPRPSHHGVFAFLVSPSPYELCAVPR
Another series addresses Cytochrome P450 2C9 (Homo sapiens, UniProt P11712). Description: Inhibition of CYP2C9 in human liver microsomes using diclofenac as substrate after 15 mins by LC/MS/MS analysis. In kind it is ADME.
Another series concerns the target T5, Cytochrome P450 1A2 (Homo sapiens, UniProt P05177).
T5 sequence (P05177 whole entry): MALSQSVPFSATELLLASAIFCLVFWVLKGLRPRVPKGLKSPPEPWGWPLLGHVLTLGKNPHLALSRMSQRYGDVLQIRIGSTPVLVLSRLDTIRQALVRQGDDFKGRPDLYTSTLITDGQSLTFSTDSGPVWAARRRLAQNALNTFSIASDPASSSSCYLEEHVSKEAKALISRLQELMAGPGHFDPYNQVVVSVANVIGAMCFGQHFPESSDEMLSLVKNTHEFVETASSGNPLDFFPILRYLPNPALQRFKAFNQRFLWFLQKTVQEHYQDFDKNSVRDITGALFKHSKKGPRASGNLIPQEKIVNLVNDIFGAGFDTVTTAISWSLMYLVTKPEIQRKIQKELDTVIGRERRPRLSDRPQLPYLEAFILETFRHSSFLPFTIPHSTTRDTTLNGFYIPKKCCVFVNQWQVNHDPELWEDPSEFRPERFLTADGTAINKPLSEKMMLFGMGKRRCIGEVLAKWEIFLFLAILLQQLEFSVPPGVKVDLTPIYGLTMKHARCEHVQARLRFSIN
Put plainly: Inhibition of CYP1A2 in human liver microsomes using phenacetin as substrate after 15 mins by LC/MS/MS analysis. It is filed as ADME.

A further series concerns the target T6, Cytochrome P450 2C8 (Homo sapiens, UniProt P10632).
T6 sequence (P10632 whole entry): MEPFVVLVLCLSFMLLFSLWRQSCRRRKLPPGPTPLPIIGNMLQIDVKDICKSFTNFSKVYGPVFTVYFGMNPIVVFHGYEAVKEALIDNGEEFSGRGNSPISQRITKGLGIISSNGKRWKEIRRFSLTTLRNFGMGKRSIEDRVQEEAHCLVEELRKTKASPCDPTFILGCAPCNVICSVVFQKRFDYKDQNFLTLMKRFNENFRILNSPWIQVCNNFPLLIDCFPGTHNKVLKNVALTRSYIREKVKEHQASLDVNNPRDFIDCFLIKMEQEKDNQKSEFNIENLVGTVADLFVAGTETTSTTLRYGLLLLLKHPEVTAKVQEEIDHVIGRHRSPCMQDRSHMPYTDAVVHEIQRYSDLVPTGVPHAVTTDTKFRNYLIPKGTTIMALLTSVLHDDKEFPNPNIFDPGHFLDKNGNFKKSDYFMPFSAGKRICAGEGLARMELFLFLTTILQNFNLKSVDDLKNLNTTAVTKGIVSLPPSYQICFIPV
Put plainly: Inhibition of CYP2C8 in human liver microsomes using paclitaxel as substrate after 15 mins by LC/MS/MS analysis. It is filed as ADME.

Values after ≈ are worked out from the molar mass of the structure shown.

Sequence of Cytochrome P450 2C9 (P11712 whole entry): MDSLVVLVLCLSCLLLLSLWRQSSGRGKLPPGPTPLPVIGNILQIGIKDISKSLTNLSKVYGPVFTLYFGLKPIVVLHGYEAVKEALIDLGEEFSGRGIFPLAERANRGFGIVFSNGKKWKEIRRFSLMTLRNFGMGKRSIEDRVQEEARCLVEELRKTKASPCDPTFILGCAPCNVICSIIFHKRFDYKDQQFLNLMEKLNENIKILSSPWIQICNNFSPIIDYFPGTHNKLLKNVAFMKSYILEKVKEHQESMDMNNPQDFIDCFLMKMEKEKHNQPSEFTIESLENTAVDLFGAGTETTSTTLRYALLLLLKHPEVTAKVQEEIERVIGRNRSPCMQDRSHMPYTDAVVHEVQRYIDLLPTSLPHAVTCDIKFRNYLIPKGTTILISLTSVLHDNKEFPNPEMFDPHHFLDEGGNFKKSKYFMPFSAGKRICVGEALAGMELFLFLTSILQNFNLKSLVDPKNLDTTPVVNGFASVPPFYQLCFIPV

By solubility is commonly meant how much of the substance goes into solution per volume. A low value points to little dissolved substance. What is called IC50 is the concentration at which inhibition is half-maximal. For the molecule `C[C@@H]1c2ncn(-c3ccc(F)cc3)c2CCN1C(=O)c1cccc(C(F)(F)F)c1Cl`, the solubility at 72 h came to 165 µM (≈ 72.2 µg/mL) in series [1] and 14 µM (≈ 6.13 µg/mL) in [3]. Also, the figures for the fraction unbound at 6 h, 1 µM in series [2] and in series [5] were 0.04 and 0.025, respectively. The IC50 on P2X purinoceptor 7 [4] worked out at 45 nM.

Turning to `O=C(c1cccc(C(F)(F)F)c1F)N1CCc2c(ncn2-c2ccc(F)cn2)C1`, on P2X purinoceptor 7 [6], the IC50 was more than 10000 nM.

Turning to `O=C(c1cccc(C(F)(F)F)c1Cl)N1CCc2c(ncn2-c2cnccn2)C1`, the IC50 at P2X purinoceptor 7 [7] was determined as 9 nM.

Take `O=C(c1cccc(C(F)(F)F)c1Cl)N1CCc2c(ncn2-c2ccccn2)C1`: the IC50 on P2X purinoceptor 7 [7] is 4 nM.

As to `CC1c2ncn(-c3cnccn3)c2CCN1C(=O)c1cccc(C(F)(F)F)c1Cl` (configuration not stated), the hepatic extraction ratio at 1 h, 1 µM in the series “in vitro [8]” came out at 0.77; in “in vitro [9]”, 0.84. Also, the half-maximal inhibitory concentration (IC50) amounted to 1230 nM on P2X purinoceptor 7 [6] and 77 nM on P2X purinoceptor 7 [7].

`CC1c2ncn(-c3ncccc3F)c2CCN1C(=O)c1cccc(C(F)(F)F)c1Cl` (configuration not stated): the IC50 on P2X purinoceptor 7 [7] was 9 nM.

Usually inhibition stands for the change of the read-out against control, counted positive when it falls. For `CC(=O)N1CCN(c2ccc(OCC3COC(Cn4ccnc4)(c4ccc(Cl)cc4Cl)O3)cc2)CC1` (configuration not stated) [KETOCONAZOLE], the inhibition at 0.01 µM at CYP3A4 [10] amounted to 53%; on CYP3A4 [11] it was 57%. For the same molecule, the inhibition at 0.02 µM on CYP3A4 [12] turned out to be 74%; at CYP3A4 [13], 70%.

For the molecule `C[C@@H]1c2ncn(-c3ncc(F)cn3)c2CCN1C(=O)c1cccc(C(F)(F)F)c1Cl`, the solubility at 72 h in series [1] is more than 400 µM; in [3], 4 µM (≈ 1.76 µg/mL). Moreover, the fraction unbound at 6 h, 1 µM is 0.048 in series [2] and 0.038 in series [5]. For the same molecule, the IC50 is more than 10000 nM in [14], 7800 nM on Cytochrome P450 2C19 and 38 nM on P2X purinoceptor 7 [4].

For the molecule `C[C@@H]1c2ncn(-c3ccccn3)c2CCN1C(=O)c1cccc(C(F)(F)F)c1Cl`, the values for the solubility at 72 h in [1] and in [3] were more than 400 µM and 20 µM (≈ 8.42 µg/mL), respectively. Further, the fraction unbound at 6 h, 1 µM in series [2] was 0.047; in series [5], 0.026. The IC50 (against Cytochrome P450 2D6; in [14]; against Cytochrome P450 2C9; on Cytochrome P450 1A2; against Cytochrome P450 2C8; against Cytochrome P450 2C19) was more than 10000 nM throughout. For the same molecule, on P2X purinoceptor 7 [4], the IC50 is 20 nM.

On to `O=C(c1cccc(C(F)(F)F)c1Cl)N1CCc2c(ncn2-c2ccccc2)C1`, for which the results for the hepatic extraction ratio at 1 h, 1 µM in the series “in vitro [8]” and in the series “in vitro [9]” were 0.94 and 0.89, respectively.

The values are drawn from ChEMBL document CHEMBL3856233, “Identification of (R)-(2-Chloro-3-(trifluoromethyl)phenyl)(1-(5-fluoropyridin-2-yl)-4-methyl-6,7-dihydro-1H-imidazo[4,5-c]pyridin-5(4H)-yl)methanone (JNJ 54166060), a Small Molecule Antagonist of the P2X7 receptor” (J Med Chem, 2016).
